Literature values in patent US20040054006A1 (priority 1999, published 2004).

How the values were obtained:
[1] = feeding animals cyclocreatine, e.g. 1% dietary
[2] = fed to mice, rats and chicks
creatine kinase = settings: forward reaction, both in vitro and in vivo
[3] = 1% dietary cyclocreatine
[4] = mice, up to 1% of diet for 2 weeks or for over 4 weeks
[5] = rats, dietary 1% cyclocreatine
[6] = newly hatched chicks, diet containing 1% cyclocreatine
[7] = intravenous injection, up to 8 grams/day, patients with cardiac diseases

**Q.** For `NC1=NCCN1CC(=O)O` [cyclocreatine, 1-carboxymethyl-2-iminoimidazolidine], which “accumulation in different organs” value [1] is on record?
**A.** accumulation of cyclocreatine in different organs in mM concentrations

**Q.** What about the tolerability [2] of the same compound?
**A.** well-tolerated

**Q.** What about the “phosphorylation by creatine kinase” value (creatine kinase) of the same compound?
**A.** phosphorylated efficiently

**Q.** And the antiviral activity [3]?
**A.** antiviral activity of cyclocreatine is observed

**Q.** And the gross adverse effects [4]?
**A.** without gross adverse effects

**Q.** And the tissue uptake [5]?
**A.** taken up by muscle, heart and brain

**Q.** What about the “growth versus control chicks” value [6] of the same compound?
**A.** grew more slowly than control chicks

**Q.** And the mortality ([6]; in the presence of antibiotics)?
**A.** without significant mortality

**Q.** For “N-phosphoryl creatine [Creatine phosphate]”, which adverse side effects [7] is on record?
**A.** no adverse side effects
